Test results as given in article PMC6264397, “Interaction of the Main Components from the Traditional Chinese Drug Pair Chaihu-Shaoyao Based on Rat Intestinal Absorption” (Molecules, 2011).
“And” between values parts separate entries of the source, which are not always exact repeats. Equal entries are not always repeated. Where two headings read alike, the source gives them in different places.

Legend:
Caco-2 cell = test system: Caco-2 cell; design: method as in earlier work; settings: cited from earlier work
rat intestine = experiment: four-site single-pass perfused rat intestinal model; format: in vivo; design: P*eff Duodenum / P*eff Jejunum / P*eff Ileum: unit not given here
Experimental: The absorptions of SSA, SSD and paeoniflorin in different intestinal segments were studied by the rat intestinal perfusion model. The concentrations of all the compounds of interest were 20 μmol·L^−1. The concentrations of the compounds in the perfusate samples were analyzed by UPLC or LC/MS, and then the P*eff and […] of SSA, SSD and paeoniflorin were calculated.
The perfusion protocol was approved by the Animal Ethics Committee of Jiangsu Provincial Academy of Chinese Medicine. The intestinal surgical procedures were described in our previous publications. Briefly, rats were anesthetized with an intra-muscular injection of urethane (0.5 g mL^−1) and placed on a heated surface maintained at its normal body temperature. Four segments of intestine, duodenum, jejunum, ileum, and colon (8–12 cm) were simultaneously cannulated with no disruption of circulation to the intestine, each with two cannulae. After cannulation, the small intestinal segments were placed carefully into the abdominal cavity, avoiding crimping or kinking of the segments. To keep the temperature of the perfusate constant, the inlet cannulate was kept warm by a 37 °C circulating water bath.
This is a single-pass perfusion method. Four segments of the intestine (duodenum, upper jejunum, terminal ileum, and colon) were perfused simultaneously with a perfusate containing the compound of interest using an infusion pump (Harvard Apparatus, Cambridge, MA, USA) at a flow rate of 0.2 mL min^−1. After a 30-min washout period, which is usually sufficient to achieve the steady-state absorption, four samples were collected from the outlet cannulae every 30 min afterward. After perfusion, the length of the intestine was measured as described previously. The outlet concentrations of the test compounds in the luminal perfusate were determined by HPLC or LC/MS.
The outlet concentrations of SSA and SSD were determined by LC/MS using a HPLC-Agilent 6410 Triple Quad (Agilent, Palo Alto, CA, USA) system equipped with an atmospheric-pressure chemical ionization source. The samples were separated on a Zorbax SB-C18 column (250 mm × 4.6 mm, 5 μm, Agilent) and Zorbax SB-C18 precolumn (4.6 × 12.5 mm, […], Agilent). The mobile phase consisted of acetonitrile and water (40:60, v/v), and the flow rate was 0.4 mL·min^−1. The column temperature was maintained at 35 °C and the injection volume was 20 μL. For MS analysis, atmospheric-pressure chemical ionization (APCI) source was operated in the negative ion mode. The selected parameters were as follows: drying nitrogen gas at 350 °C and a flow-rate of […]; nebulizer pressure at 20 p.s.i.g. (1 p.s.i. = 6894.76 Pa); vaporizer temperature at 325 °C; capillary voltage at 4,500 V and corona current at 4 μA. The chromatograms obtained for quantitation were recorded under time-scheduled SIM, with fragmentor voltages was set at 150 V. The scan range was from m/z 250 to m/z 1,000. The instrument was programmed for a scan dwell time of 200 ms. Intense […] ions at m/z 781 and m/z 255 were shown for SSA (SSD) and chrysin(internal standard). In general, these methods were selective and reproducible with day to day variability of less than 3%. The tested linear response range for SSA and SSD was 0.625 to 80 μM. The accuracy and precision were greater than 98%. The recovery of three different concentrations was around 90.91%~92.66%, and RSD was less than 5% (n = 5).
UPLC was used to analyze the concentration of paeoniflorin in the perfusate samples. The conditions were as follows: Waters Acquity™ system, with diode array detector and Empower software; column, Acquity UPLC BEH C-18 1.7 μm, 50 × 2.1 mm, (Waters, Milford, MA, USA); mobile phase A, water; mobile phase B, acetonitrile; gradient, 0~0.8 min, 15~22% B, 0.8~1.0 min, 22% B, 1.0~1.5 min, 35% B, 1.5~2.2 min, 70% B; flow rate, 0.4 mL·min^−1; wavelength 230 nm (paeoniflorin) and 245 nm (testosterone, the internal standard); column temperature, 35 °C; injection volume, 10 μL. […]

[1] = co-administrated with SSA, colon
[2] = co-administrated with SSA, ileum
[3] = co-administration with SSD, colon
[4] = co-administration with SSD, ileum
[5] = compound alone, 20 μmol·L−1, colon, n = 4
[6] = compound alone, 20 μmol·L−1, duodenum, n = 4
[7] = compound alone, 20 μmol·L−1, ileum, n = 4
[8] = compound alone, 20 μmol·L−1, jejunum, n = 4

Structure (SMILES): C[C@@]12C[C@@]3(O)O[C@@H](O1)[C@]1(COC(=O)c4ccccc4)[C@H]3C[C@@]12O[C@@H]1O[C@H](CO)[C@@H](O)[C@H](O)[C@H]1O [Paeoniflorin, paeoniflorin]
- change of electric resistance values of Caco-2 cell membranes (Caco-2 cell; after individual paeoniflorin was transported): no significant change
- change of electric resistance values of Caco-2 cell membranes (Caco-2 cell; paeoniflorin co-administered with saikosaponins): significantly decreased
- P*eff Colon (rat intestine; co-administrated with SSA (20:20 μmol·L−1), colon): 0.636 ± 0.034
- P*eff Duodenum (rat intestine; co-administrated with SSA (20:20 μmol·L−1), duodenum): 0.279 ± 0.049
- P*eff Ileum (rat intestine; co-administrated with SSA (20:20 μmol·L−1), ileum): 0.665 ± 0.053
- P*eff Jejunum (rat intestine; co-administrated with SSA (20:20 μmol·L−1), jejunum): 0.263 ± 0.029
- fold increase of 10% ABS vs individual compound (rat intestine; [1]): 1.25 fold
- fold increase of P*eff vs individual compound (rat intestine; [1]): 1.90 fold
- fold increase of 10% ABS vs individual compound (rat intestine; [2]): 1.40 fold
- fold increase of P*eff vs individual compound (rat intestine; [2]): 2.11 fold and ~2.11 fold
- P*eff Colon (rat intestine; co-administrated with SSD, colon): 0.696 ± 0.054
- P*eff Duodenum (rat intestine; co-administrated with SSD, duodenum): 0.304 ± 0.048
- P*eff Ileum (rat intestine; co-administrated with SSD, ileum): 0.731 ± 0.052
- P*eff Jejunum (rat intestine; co-administrated with SSD, jejunum): 0.280 ± 0.051
- 10 cm % ABS Colon (rat intestine; co-administration with SSA (20:20 μmol·L−1), colon, n = 4): 12.07 ± 0.46 * %
- 10 cm % ABS Colon (rat intestine; co-administration with SSA (20:20 μmol·L−1), colon, n = 4, listed as paeoniflorin): 12.07 ± 0.46%
- 10 cm % ABS Duodenum (rat intestine; co-administration with SSA (20:20 μmol·L−1), duodenum, n = 4): 6.13 ± 1.82%
- 10 cm % ABS Ileum (rat intestine; co-administration with SSA (20:20 μmol·L−1), ileum, n = 4): 12.57 ± 0.36 * %
- 10 cm % ABS Ileum (rat intestine; co-administration with SSA (20:20 μmol·L−1), ileum, n = 4, listed as paeoniflorin): 12.57 ± 0.36%
- 10 cm % ABS Jejunum (rat intestine; co-administration with SSA (20:20 μmol·L−1), jejunum, n = 4): 4.78 ± 1.15%
- fold increase of 10% ABS vs individual compound (rat intestine; [3]): 1.51 fold
- fold increase of P*eff vs individual compound (rat intestine; [3]): 2.18 fold
- 10 cm % ABS Colon (rat intestine; co-administration with SSD, colon, n = 4): 13.48 ± 0.57 * %
- 10 cm % ABS Colon (rat intestine; co-administration with SSD, colon, n = 4, listed as paeoniflorin): 13.48 ± 0.57%
- 10 cm % ABS Duodenum (rat intestine; co-administration with SSD, duodenum, n = 4): 6.68 ± 1.91%
- fold increase of 10% ABS vs individual compound (rat intestine; [4]): 1.63 fold
- fold increase of P*eff vs individual compound (rat intestine; [4]): 2.42 fold and ~1.90 fold
- 10 cm % ABS Ileum (rat intestine; co-administration with SSD, ileum, n = 4): 13.75 ± 0.99 * %
- 10 cm % ABS Ileum (rat intestine; co-administration with SSD, ileum, n = 4, listed as paeoniflorin): 13.75 ± 0.99%
- 10 cm % ABS Jejunum (rat intestine; co-administration with SSD, jejunum, n = 4): 5.77 ± 1.39%
- 10 cm % ABS Colon (rat intestine; [5]): 5.37 ± 1.19%
- P*eff Colon (rat intestine; [5]): 0.219 ± 0.051
- P*eff Colon (rat intestine; compound alone, 20 μmol·L−1, colon, n = 4, listed as paeoniflorin): 0.219
- 10 cm % ABS Duodenum (rat intestine; [6]): 6.57 ± 0.98%
- P*eff Duodenum (rat intestine; [6]): 0.268 ± 0.042
- P*eff Duodenum (rat intestine; compound alone, 20 μmol·L−1, duodenum, n = 4, listed as paeoniflorin): 0.268
- 10 cm % ABS Ileum (rat intestine; [7]): 5.23 ± 0.49%
- P*eff Ileum (rat intestine; [7]): 0.214 ± 0.021
- P*eff Ileum (rat intestine; compound alone, 20 μmol·L−1, ileum, n = 4, listed as paeoniflorin): 0.214
- 10 cm % ABS Jejunum (rat intestine; [8]): 5.94 ± 0.70%
- P*eff Jejunum (rat intestine; [8]): 0.243 ± 0.030
- P*eff Jejunum (rat intestine; compound alone, 20 μmol·L−1, jejunum, n = 4, listed as paeoniflorin): 0.243

Structure (SMILES): C[C@H]1O[C@@H](O[C@H]2CC[C@@]3(C)[C@@H](CC[C@]4(C)[C@@H]3C=C[C@]35OC[C@@]6(CCC(C)(C)C[C@H]63)[C@@H](O)C[C@]54C)[C@]2(C)CO)[C@H](O)[C@@H](O[C@@H]2O[C@H](CO)[C@@H](O)[C@H](O)[C@H]2O)[C@H]1O [SSA, saikosaponin a]
- P*eff Colon (rat intestine; co-administrated with paeoniflorin (20:20 μmol·L−1), colon): 0.215 ± 0.030
- P*eff Duodenum (rat intestine; co-administrated with paeoniflorin (20:20 μmol·L−1), duodenum): 0.193 ± 0.028
- P*eff Ileum (rat intestine; co-administrated with paeoniflorin (20:20 μmol·L−1), ileum): 0.347 ± 0.036
- P*eff Jejunum (rat intestine; co-administrated with paeoniflorin (20:20 μmol·L−1), jejunum): 0.194 ± 0.023
- 10 cm % ABS Colon (rat intestine; co-administration with paeoniflorin (20:20 μmol·L−1), colon, n = 4): 3.51 ± 0.73%
- 10 cm % ABS Duodenum (rat intestine; co-administration with paeoniflorin (20:20 μmol·L−1), duodenum, n = 4): 4.11 ± 0.30%
- 10 cm % ABS Ileum (rat intestine; co-administration with paeoniflorin (20:20 μmol·L−1), ileum, n = 4): 5.20 ± 0.67%
- 10 cm % ABS Jejunum (rat intestine; co-administration with paeoniflorin (20:20 μmol·L−1), jejunum, n = 4): 3.49 ± 0.61%
- 10 cm % ABS Colon (rat intestine; [5]): 3.84 ± 0.10%
- P*eff Colon (rat intestine; [5]): 0.239 ± 0.042
- 10 cm % ABS Duodenum (rat intestine; [6]): 3.75 ± 0.57%
- P*eff Duodenum (rat intestine; [6]): 0.193 ± 0.028
- 10 cm % ABS Ileum (rat intestine; [7]): 6.26 ± 0.56 * %
- P*eff Ileum (rat intestine; [7]): 0.361 ± 0.014 *
- 10 cm % ABS Jejunum (rat intestine; [8]): 3.91 ± 0.60%
- P*eff Jejunum (rat intestine; [8]): 0.207 ± 0.012
